Target: glucose oxidase (GOX) (Aspergillus niger, UniProt P13006)
Assay: time-resolved fluorescence of protein-bound flavin
Assay type: binding
Settings: 390-nm excitation

Sequence of glucose oxidase (GOX) (P13006 23-605 limits assumed): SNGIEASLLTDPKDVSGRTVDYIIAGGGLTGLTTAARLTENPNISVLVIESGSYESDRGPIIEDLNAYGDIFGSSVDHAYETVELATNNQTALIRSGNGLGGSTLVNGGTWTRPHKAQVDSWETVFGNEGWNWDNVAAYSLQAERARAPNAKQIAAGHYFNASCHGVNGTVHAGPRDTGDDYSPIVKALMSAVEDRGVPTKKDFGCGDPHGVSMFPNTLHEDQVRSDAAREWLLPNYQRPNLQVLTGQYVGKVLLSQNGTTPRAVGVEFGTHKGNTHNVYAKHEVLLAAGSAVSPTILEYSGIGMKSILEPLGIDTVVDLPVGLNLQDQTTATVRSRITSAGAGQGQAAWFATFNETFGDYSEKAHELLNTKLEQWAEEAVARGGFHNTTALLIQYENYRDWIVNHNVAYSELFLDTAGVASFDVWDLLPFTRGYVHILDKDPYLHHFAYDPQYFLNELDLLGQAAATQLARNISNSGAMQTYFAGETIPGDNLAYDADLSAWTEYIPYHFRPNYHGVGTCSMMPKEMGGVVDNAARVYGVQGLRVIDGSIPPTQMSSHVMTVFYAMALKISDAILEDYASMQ

Compound	time-resolved fluorescence of protein-bound flavin (Kerr gate)
Cc1cc2c(cc1C)N(C[C@H](O)[C@H](O)[C@H](O)COP(=O)(O)OP(=O)(O)OC[C@H]1O[C@@H](n3cnc4c(N)ncnc43)[C@H](O)[C@@H]1O)c1[nH]c(=O)[nH]c(=O)c1N2 [FADH^−]	time-resolved fluorescence of FADH^− in GOX exhibits monophasic decay
Cc1cc2nc3c(=O)[nH]c(=O)nc-3n(C[C@H](O)[C@H](O)[C@H](O)COP(=O)(O)OP(=O)(O)OC[C@H]3O[C@@H](n4cnc5c(N)ncnc54)[C@H](O)[C@@H]3O)c2cc1C [FADox]	The fluorescence decays of FADox and FADH^− in GOX measured under the same experimental conditions
